Numbers after ± are expanded uncertainties.
Assay: mn = molality of the nth substance listed, in mol/kg
Conditions: 100 kPa, Liquid; for viscosity: Capillary tube (Ostwald / Ubbelohde) method; for speed of sound: Frequency=2 MHz, Linear variable-path acoustic interferometer; for mass density: Vibrating tube method

CC(C)C[P+](C)(CC(C)C)CC(C)C.Cc1ccc(S(=O)(=O)[O-])cc1 [triisobutylmethylphosphonium p-toluenesulfonate] + O
Conditions	mass density [kg/m3]	speed of sound [m/s]	viscosity [mPa·s]
298.15 K, m1 = 0.0237	997.74 ± 0.11	1507.2 ± 4.3	0.9191 ± 0.019
298.15 K, m1 = 0.0468	998.42 ± 0.11	1513.7 ± 4.3	0.9471 ± 0.02
298.15 K, m1 = 0.0663	999 ± 0.11	1518.8 ± 4.3	0.9707 ± 0.02
298.15 K, m1 = 0.0901	999.7 ± 0.11	1524.8 ± 4.3	0.9996 ± 0.021
298.15 K, m1 = 0.1848	1002.5 ± 0.12	1546.4 ± 4.3	1.115 ± 0.023
298.15 K, m1 = 0.2883	1005.48 ± 0.14	1566.5 ± 4.3	1.241 ± 0.026
298.15 K, m1 = 0.3948	1008.42 ± 0.17	1586.1 ± 4.3	1.373 ± 0.029
298.15 K, m1 = 0.4278	1009.28 ± 0.18	1592.4 ± 4.3	1.413 ± 0.03
298.15 K, m1 = 0.478	1010.56 ± 0.2	1601.7 ± 4.4	1.475 ± 0.031
298.15 K, m1 = 0.5156	1011.48 ± 0.22	1608.3 ± 4.4	1.522 ± 0.032
303.15 K, m1 = 0.0237	996.31 ± 0.11	1518.8 ± 4.3	0.8224 ± 0.017
303.15 K, m1 = 0.0468	996.97 ± 0.11	1525.3 ± 4.3	0.8466 ± 0.018
303.15 K, m1 = 0.0663	997.53 ± 0.11	1530.8 ± 4.3	0.8669 ± 0.018
303.15 K, m1 = 0.0901	998.21 ± 0.11	1536.6 ± 4.3	0.8919 ± 0.019
303.15 K, m1 = 0.1848	1000.89 ± 0.12	1555.9 ± 4.3	0.9914 ± 0.021
303.15 K, m1 = 0.2883	1003.76 ± 0.14	1574.5 ± 4.3	1.101 ± 0.023
303.15 K, m1 = 0.3948	1006.58 ± 0.17	1590.7 ± 4.3	1.214 ± 0.026
303.15 K, m1 = 0.4278	1007.42 ± 0.18	1596.2 ± 4.3	1.249 ± 0.027
303.15 K, m1 = 0.478	1008.64 ± 0.2	1604 ± 4.4	1.302 ± 0.028
303.15 K, m1 = 0.5156	1009.52 ± 0.21	1609.4 ± 4.4	1.343 ± 0.029
308.15 K, m1 = 0.0253	994.73 ± 0.11	1528.8 ± 4.3	0.7415 ± 0.016
308.15 K, m1 = 0.053	995.49 ± 0.11	1536.4 ± 4.3	0.7656 ± 0.016
308.15 K, m1 = 0.0791	996.21 ± 0.11	1541.7 ± 4.3	0.7883 ± 0.017
308.15 K, m1 = 0.1003	996.79 ± 0.11	1545.6 ± 4.3	0.8068 ± 0.017
308.15 K, m1 = 0.2056	999.66 ± 0.13	1566.2 ± 4.3	0.8989 ± 0.019
308.15 K, m1 = 0.2689	1001.35 ± 0.14	1577.9 ± 4.3	0.9546 ± 0.02
308.15 K, m1 = 0.3193	1002.66 ± 0.15	1587.2 ± 4.3	0.999 ± 0.021
308.15 K, m1 = 0.3643	1003.8 ± 0.16	1592.7 ± 4.3	1.039 ± 0.022
308.15 K, m1 = 0.4345	1005.51 ± 0.18	1602 ± 4.3	1.101 ± 0.024
308.15 K, m1 = 0.5175	1007.42 ± 0.21	1612.8 ± 4.4	1.175 ± 0.025
313.15 K, m1 = 0.0253	992.9 ± 0.11	1538.7 ± 4.3	0.6717 ± 0.014
313.15 K, m1 = 0.053	993.66 ± 0.11	1545.1 ± 4.3	0.692 ± 0.015
313.15 K, m1 = 0.0791	994.36 ± 0.11	1551.5 ± 4.3	0.7111 ± 0.015
313.15 K, m1 = 0.1003	994.92 ± 0.11	1556.3 ± 4.3	0.7266 ± 0.015
313.15 K, m1 = 0.2056	997.66 ± 0.13	1575.1 ± 4.3	0.8042 ± 0.017
313.15 K, m1 = 0.2689	999.26 ± 0.14	1584.7 ± 4.3	0.851 ± 0.018
313.15 K, m1 = 0.3193	1000.5 ± 0.15	1592.3 ± 4.3	0.8883 ± 0.019
313.15 K, m1 = 0.3643	1001.59 ± 0.16	1598.1 ± 4.3	0.9218 ± 0.02
313.15 K, m1 = 0.4345	1003.25 ± 0.18	1607.3 ± 4.3	0.9741 ± 0.021
313.15 K, m1 = 0.5175	1005.14 ± 0.21	1617.1 ± 4.4	1.036 ± 0.022

From the NIST ThermoML archive (doi:10.1016/j.jct.2015.09.029)
